Converted amounts (≈) assume the structure as drawn.
What was measured:
[1] = Cytotoxicity assay on A549 cells; format: cell-based; conditions: human
Description: (§1) Cytotoxicity assays and Selectivity assays. Cytotoxicity assays on HepG2, HEK293 and A549 cells and selectivity assays on various MMPs were performed as described previously (Haupenthal, J.; Baehr, C.; Zeuzem, S.; Piiper, A. RNAse A-like Enzymes in Serum Inhibit the Anti-Neoplastic Activity of SiRNA Targeting Polo-like Kinase 1. Int. J. Cancer 2007, 121 (1), 206-210. https://doi.org/10.1002/ijc.22665).

MMP-2 = MMP-2 (Homo sapiens, UniProt P08253); test: Selectivity assay on MMP-2; format: biochemical; conditions: read-out: % Inh. @ 100 μM MMP-2
Chain of MMP-2 (P08253 110-660): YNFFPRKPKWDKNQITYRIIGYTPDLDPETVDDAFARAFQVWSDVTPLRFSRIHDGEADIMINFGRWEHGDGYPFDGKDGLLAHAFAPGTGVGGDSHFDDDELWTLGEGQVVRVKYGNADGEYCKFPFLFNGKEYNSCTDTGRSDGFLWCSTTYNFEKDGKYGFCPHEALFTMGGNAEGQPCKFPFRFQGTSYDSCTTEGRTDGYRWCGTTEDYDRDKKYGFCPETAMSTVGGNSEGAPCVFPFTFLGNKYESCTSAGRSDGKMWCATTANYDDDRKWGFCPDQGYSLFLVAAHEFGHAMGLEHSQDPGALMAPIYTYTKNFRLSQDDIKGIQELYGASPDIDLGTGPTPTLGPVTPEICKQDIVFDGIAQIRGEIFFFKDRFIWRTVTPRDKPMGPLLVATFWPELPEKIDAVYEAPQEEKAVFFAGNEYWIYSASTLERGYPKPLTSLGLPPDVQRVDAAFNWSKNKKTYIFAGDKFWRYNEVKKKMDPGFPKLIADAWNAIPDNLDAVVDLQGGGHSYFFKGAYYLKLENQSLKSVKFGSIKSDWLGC
Description: as §1

IMP-7 = IMP-7 (Pseudomonas aeruginosa, UniProt Q93AU3); test: In vitro inhibition assay (kinetic fluorescence-based activity assay), IMP-7; format: biochemical; conditions: Means and SD of at least two independent experiments
Chain of IMP-7 (Q93AU3 entry or part of it): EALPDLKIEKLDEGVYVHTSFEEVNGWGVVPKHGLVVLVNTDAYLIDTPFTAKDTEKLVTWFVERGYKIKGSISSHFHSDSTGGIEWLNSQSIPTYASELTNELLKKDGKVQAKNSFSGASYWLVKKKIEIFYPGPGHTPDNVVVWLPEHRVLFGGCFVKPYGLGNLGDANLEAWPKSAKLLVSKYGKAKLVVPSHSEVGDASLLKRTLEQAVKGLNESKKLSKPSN
Description: (§2) Protein expression and purification. The expression of IMP-7, VIM-1, and NDM-1 was performed according to the protocol previously published by Klingler et al. (Klingler, F. M.; Wichelhaus, T. A.; Frank, D.; Cuesta-Bernal, J.; El-Delik, J.; Müller, H. F.; Sjuts, H.; Gottig, S.; Koenigs, A.; Pos, K. M.; et al. Approved Drugs Containing Thiols as Inhibitors of Metallo-β-Lactamases: Strategy to Combat Multidrug-Resistant Bacteria. J. Med. Chem. 2015, 58 (8), 3626-3630. https://doi.org/10.1021/jm501844d) with slight modifications.
(§3) In vitro inhibition assay. Activity assays for NDM-1, VIM-1, VIM-2 and IMP-7 were carried out, as described by Klingler et al. Final protein concentrations were 0.5 nM (NDM-1), 4.0 nM (VIM-1), and 0.1 nM (IMP-7) in a 50 mM HEPES buffer (pH 7.5, 0.01% Triton X-100) Substrate (Fluorocillin™ (Invitrogen, Darmstadt, Germany) was dissolved in assay buffer to a final concentration of 888 nM. Test compounds were dissolved and pre-diluted in DMSO (final concentration: 1%). In a black polystyrol 96-well plate (Corning) an amount of […] of the respective inhibitor solution at different concentrations was incubated with […] of respective protein containing buffer for 30 minutes at room temperature. […] of substrate solution was added. The readout of the emitted fluorescence was started immediately (45 s for 30 cycles) using a Tecan Infinite F200Pro (Tecan Group Ltd; excitation at 495 nm and emission at 525 nm). Blank controls were performed without enzyme. Positive controls were performed with enzyme but without inhibitor. The inhibitory activity of each test compound was measured in three independent experiments. For calculation of IC50 values, data obtained from measurements with eight different inhibitor concentrations were used. For the evaluation of the sigmoidal dose response equation (variable slope with four parameters) GraphPad Prism 5 (GraphPad Software, La Jolla, Calif., USA) was used.

MMP-14 = MMP-14 (Homo sapiens, UniProt P50281); test: Selectivity assay on MMP-14; format: biochemical; conditions: read-out: % Inh. @ 100 μM MMP-14
Description: as §1

MMP-7 = MMP-7 (Homo sapiens, UniProt P09237); test: Selectivity assay on MMP-7; format: biochemical; conditions: read-out: % Inh. @ 100 μM MMP-7
Chain of MMP-7 (P09237 95-267): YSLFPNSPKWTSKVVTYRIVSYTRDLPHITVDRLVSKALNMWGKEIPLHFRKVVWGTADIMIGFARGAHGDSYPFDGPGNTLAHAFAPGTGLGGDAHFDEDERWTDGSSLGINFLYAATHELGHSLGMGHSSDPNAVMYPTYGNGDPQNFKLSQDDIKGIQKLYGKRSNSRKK
Description: as §1

VIM-1 = target: T1, VIM-1 (Pseudomonas aeruginosa, UniProt A0A0F7KYQ8); test: In vitro inhibition assay (kinetic fluorescence-based activity assay), VIM-1; format: biochemical; conditions: Means and SD of at least two independent experiments
T1 construct: made in house
Description: as §2, §3

NDM-1 = target: T2, NDM-1 (Klebsiella pneumoniae, UniProt C7C422); test: In vitro inhibition assay (kinetic fluorescence-based activity assay), NDM-1; format: biochemical; conditions: Means and SD of at least two independent experiments
T2 construct: made in house
T2 sequence (C7C422 29-270, looked up, species assumed): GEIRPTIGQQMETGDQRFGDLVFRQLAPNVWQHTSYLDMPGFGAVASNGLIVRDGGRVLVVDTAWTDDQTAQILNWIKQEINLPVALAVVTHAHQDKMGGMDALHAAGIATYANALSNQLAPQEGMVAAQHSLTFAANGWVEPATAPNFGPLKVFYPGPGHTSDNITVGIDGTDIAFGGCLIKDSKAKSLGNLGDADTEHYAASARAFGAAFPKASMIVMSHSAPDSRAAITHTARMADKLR
Description: as §2, §3

[2] = tested on: different isolates from E. coli and P. aeruginosa; test: MIC assay, intrinsic antibacterial activity; format: cell-based; conditions: compound alone
[3] = Cytotoxicity assay on HEK293 cells; format: cell-based; conditions: human
Description: as §1

[4] = Cytotoxicity assay on HepG2 cells; format: cell-based; conditions: human
Description: as §1

[5] = tested on: imipenem-resistant P. aeruginosa producing VIM-2; test: Imipenem MIC with compound at single concentration; format: cell-based; conditions: compound at single concentration 1024 μg/mL
MMP-3 = MMP-3 (Homo sapiens, UniProt P08254); test: Selectivity assay on MMP-3; format: biochemical; conditions: read-out: % Inh. @ 100 μM MMP-3
Chain of MMP-3 (P08254 100-477): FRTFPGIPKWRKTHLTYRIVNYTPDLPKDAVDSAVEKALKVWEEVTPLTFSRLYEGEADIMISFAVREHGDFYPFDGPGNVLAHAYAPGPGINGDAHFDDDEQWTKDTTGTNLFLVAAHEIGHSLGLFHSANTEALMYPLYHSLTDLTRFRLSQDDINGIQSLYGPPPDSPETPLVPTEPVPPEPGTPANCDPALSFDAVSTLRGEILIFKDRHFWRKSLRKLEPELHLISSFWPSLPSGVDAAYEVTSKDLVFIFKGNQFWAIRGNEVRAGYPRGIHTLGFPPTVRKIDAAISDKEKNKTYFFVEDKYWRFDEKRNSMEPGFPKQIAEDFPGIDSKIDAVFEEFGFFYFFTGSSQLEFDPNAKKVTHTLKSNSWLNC
Description: as §1

MMP-1 = MMP-1 (Homo sapiens, UniProt P03956); test: Selectivity assay on MMP-1; format: biochemical; conditions: read-out: % Inh. @ 100 μM MMP-1
Chain of MMP-1 (P03956 100-469): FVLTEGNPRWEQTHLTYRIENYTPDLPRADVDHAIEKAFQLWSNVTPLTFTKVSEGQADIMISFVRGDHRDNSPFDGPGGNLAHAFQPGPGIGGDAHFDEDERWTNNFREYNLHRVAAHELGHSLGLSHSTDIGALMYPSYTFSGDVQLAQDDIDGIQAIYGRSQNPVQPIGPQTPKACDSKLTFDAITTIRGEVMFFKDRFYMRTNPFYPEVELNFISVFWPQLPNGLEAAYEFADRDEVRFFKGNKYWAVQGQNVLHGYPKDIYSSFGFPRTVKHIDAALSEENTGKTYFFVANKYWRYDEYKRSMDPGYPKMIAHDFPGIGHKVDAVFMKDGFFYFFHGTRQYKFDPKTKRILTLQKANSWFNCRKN
Description: as §1

MMP-8 = MMP-8 (Homo sapiens, UniProt P22894); test: Selectivity assay on MMP-8; format: biochemical; conditions: read-out: % Inh. @ 100 μM MMP-8
Chain of MMP-8 (P22894 101-467): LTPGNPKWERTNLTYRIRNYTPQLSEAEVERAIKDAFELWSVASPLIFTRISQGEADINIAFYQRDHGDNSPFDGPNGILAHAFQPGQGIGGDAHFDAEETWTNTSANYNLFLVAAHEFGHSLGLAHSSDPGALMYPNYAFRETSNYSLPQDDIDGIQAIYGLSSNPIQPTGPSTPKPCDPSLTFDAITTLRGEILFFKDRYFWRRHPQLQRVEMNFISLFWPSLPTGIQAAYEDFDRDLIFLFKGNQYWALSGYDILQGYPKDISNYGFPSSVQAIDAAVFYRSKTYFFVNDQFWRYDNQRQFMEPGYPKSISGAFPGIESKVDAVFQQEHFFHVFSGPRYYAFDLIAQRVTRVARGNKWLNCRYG
Description: as §1

E. coli NDM-5 (T2351) = test: MIC assay, clinical isolate; format: cell-based; conditions: +HIPS1686 256 mg/L
E. cloacae NDM-1 (T2311) = test: MIC assay, clinical isolate; format: cell-based; conditions: +HIPS1686 256 mg/L
[6] = tested on: S. marcescens NDM-1 (T2352); test: MIC assay, clinical isolate; format: cell-based; conditions: +HIPS1686 256 mg/L; S. marcescens NDM-1 (T2352)
[7] = tested on: P. aeruginosa IMP-1 (T2325); test: MIC assay, clinical isolate; format: cell-based; conditions: +HIPS1686 256 mg/L; P. aeruginosa IMP-1 (T2325)
E. coli producing NDM-1 = test: MIC of imipenem in the presence of HIPS1686; format: cell-based
E. coli NDM-1 (T2359) = test: Checkerboard assay with imipenem, E. coli NDM-1 (T2359); format: cell-based; conditions: Table 4, median of three experiments
Description: Fractional inhibitory concentration index (FICI). The checkerboard assay was performed to test for synergy in vitro. […] FICIs≤0.5 were defined as synergistic; FICIs from >0.5 to […] were defined as additive; FICIs from 1 to ≤4 were defined as indifferent and FICIs>4 were defined as antagonistic (Doern, C. D. When Does 2 plus 2 Equal 5? A Review of Antimicrobial Synergy Testing. J. Clin. Microbial. 2014, 52 (12), 4124-4128. https://doi.org/10.1128/JCM.01121-14).

E. cloacae GIM-1 (T2218) = test: MIC assay, clinical isolate; format: cell-based; conditions: +HIPS1686 256 mg/L; E. cloacae GIM-1 (T2218)
E. cloacae VIM-1 (T2353) = test: MIC assay, clinical isolate; format: cell-based; conditions: +HIPS1686 256 mg/L
[8] = tested on: K. pneumoniae NDM-1 (T2301); test: MIC assay, clinical isolate; format: cell-based; conditions: +HIPS1686 256 mg/L

O=C(CCS)Nc1ccc(Cl)c(Cl)c1 [HIPS1447, N-(3,4-Dichlorophenyl)-3-mercaptopropanamide]
IC50 [1]: > 100 µM | inhibition at 100 µM (MMP-2): 15.8 ± 13.5% | IC50 (IMP-7): 5 ± 0.6 µM | inhibition at 100 µM (MMP-14): 17.9 ± 7.8% | inhibition at 100 µM (MMP-7): < 10% | IC50 (VIM-1): 0.1 µM | IC50 (NDM-1): 1.3 µM | intrinsic antibacterial activity (MIC) [2]: no intrinsic antibacterial activity | IC50 [3]: > 100 µM | IC50 [4]: > 100 µM | fold decrease of imipenem MIC value [5]: 64 fold | inhibition at 100 µM (MMP-3): < 10% | inhibition at 100 µM (MMP-1): < 10% | inhibition at 100 µM (MMP-8): 38.2 ± 24.8%

O=C(CCS)Nc1ccccc1C(=O)O [HIPS1686]
MIC (mg/L) Imipenem (+HIPS1686 256 mg/L) (E. coli NDM-5 (T2351)): 2 mg/L (≈ 8.88 µM) | MIC (mg/L) Imipenem (+HIPS1686 256 mg/L) (E. cloacae NDM-1 (T2311)): 1 mg/L (≈ 4.44 µM) | IC50 (IMP-7): 4.1 ± 0.3 µM | MIC (mg/L) Imipenem (+HIPS1686 256 mg/L) [6]: 4 mg/L (≈ 17.8 µM) | MIC (mg/L) Imipenem (+HIPS1686 256 mg/L) [7]: 32 mg/L (≈ 142 µM) | IC50 (VIM-1): 2.2 ± 0.2 µM | MIC (E. coli producing NDM-1; Escherichia coli): > 1020 µg/mL | MIC of imipenem in the presence of HIPS1686 (E. coli producing NDM-1; HIPS1686 constant 64 μg/ml): 4 µg/mL | MIC of imipenem in the presence of HIPS1686 (E. coli producing NDM-1; HIPS1686 constant 256 μg/ml): 1 µg/mL | MIC of imipenem in the presence of HIPS1686 (E. coli producing NDM-1; HIPS1686 constant 1024 μg/ml): 1 µg/mL | IC50 (NDM-1): 3.4 ± 0.1 µM | intrinsic antibacterial activity (MIC) [2]: no intrinsic antibacterial activity | Imipenem MIC (E. coli NDM-1 (T2359); +4 mg/L HIPS1686): 64 µg/mL | Imipenem MIC (E. coli NDM-1 (T2359); +8 mg/L HIPS1686): 64 µg/mL | Imipenem MIC (E. coli NDM-1 (T2359); +16 mg/L HIPS1686): 64 µg/mL | Imipenem MIC (E. coli NDM-1 (T2359); +32 mg/L HIPS1686): 16 µg/mL | Imipenem MIC (E. coli NDM-1 (T2359); +64 mg/L HIPS1686): 8 µg/mL | Imipenem MIC (E. coli NDM-1 (T2359); +128 mg/L HIPS1686): 2 µg/mL | Imipenem MIC (E. coli NDM-1 (T2359); +256 mg/L HIPS1686): 2 µg/mL | MIC (mg/L) Imipenem (+HIPS1686 256 mg/L) (E. cloacae GIM-1 (T2218)): 0.5 mg/L (≈ 2.22 µM) | MIC (mg/L) Imipenem (+HIPS1686 256 mg/L) (E. cloacae VIM-1 (T2353)): 4 mg/L (≈ 17.8 µM) | MIC (mg/L) Imipenem (+HIPS1686 256 mg/L) [8]: 1 mg/L (≈ 4.44 µM)

— US20230146507A1, “N-PHENYL-3-MERCAPTOPROPANAMIDE DERIVATIVES AS METALLO-BETA-LACTAMASE INHIBITORS FOR THE TREATMENT OF BACTERIAL INFECTIONS” (Helmholtz-Zentrum Für Infektionsforschung GmbH, priority 2020, published 2023)
